Measured values as given in patent US20070213370A1, “5-HTP Combination Therapy” (H. Lundbeck A/S, priority 2005, published 2007).
Like-named read-outs stand apart in the source and are kept apart here.

Experiments:
[1] = Mouse plasma levels of 5-HTP; assay type: in vivo; details: mouse forced swim test with escitalopram versus human clinical efficacy
Description: For this indication, typical doses of 100-200 mg of 5-HTP result in plasma levels of 50-100 ng/ml (Gijsman, H. J., et al., J Clin Psychopharmacol. 2002 April, 22(2):183-9).

[2] = typical doses of 100-200 mg 5-HTP; cited from earlier work
[3] = system: NMRI/BOM mice; experiment: Mouse forced swim test; assay type: in vivo; details: for ED50: SRI alone, mouse forced swim test; for ED50, SRI + 5-HTP (25 mg/kg): SRI in combination with 5-HTP 25 mg/kg SC
Text: Male NMRI/BOM mice (18-25 g; Bomholtgaard, Denmark) were used. The mice were housed in plastic cages (35×30×12 cm), 10 in each and habituated to the animal facilities for at least a week before test. […] The animals had free access to commercial food pellets and tap water before test.
A mouse that is forced to swim in a spatially constrained container will exert a characteristic immobile posture. Pretreatment with an antidepressant will counteract this effect. […] Briefly, a fully automated test system with 6 swim units (2000 ml glass jars filled with 1200 ml soiled water (23-25° C.) in which a mouse had been placed previously) was used. The assessment of immobility was performed by image analysis.
Thirty minutes after drug or vehicle treatment the mice were treated with 5-HTP and 20 min later the mice were placed into the glass jar and left in the water for a total of 6 min. The accumulated duration of immobility was measured during the last 3 min. A total of 9-18 mice were tested per dose.

[4] = system: BALB/cByJ mice; experiment: Mouse marble burying behavior; assay type: in vivo
Text: Male BALB/cByJ mice (Jackson labs, Bar Harbor, Me.) were housed 5/cage upon arrival, at which time they were 7-8 weeks of age. Animals acclimated to the housing facility under standard laboratory conditions for a period of at least one week before testing (lights on at 6:00 AM). […] Fifteen minutes after the second injection, animals were individually placed into novel cages in which a layer of Aspen Pine bedding on which two parallel rows of 10 marbles each (i.e. twenty total) were placed. After 30 minutes had elapsed, the mice were removed from their test cages and returned to their home cages. The number of fully visible marbles (less than ⅔ covered with bedding) were counted and subtracted from 20 to arrive at the number of marbles buried.

[5] = cited from earlier work
[6] = system: extra-cellular 5-HT in frontal cortex; experiment: Rat microdialysis, extracellular 5-HT in frontal cortex of freely moving rats; assay type: in vivo; details: escitalopram 0.5 mg/kg s.c. versus fluoxetine 10 mg/kg s.c.; 5-HTP 25 mg/kg s.c. 60 min later
Description: FIG. 1. […] Microdialysis in freely moving rats was performed as described in detail by Mark, […]. and Sanchez, C. […] Briefly, male Sprague-Dawley rats were prepared for microdialysis by surgically implanting intracerebral guide cannulas. A microdialysis probe was inserted through the guide cannula. Perfusion of the microdialysis probe with filtered Ringer solution (146 mM NaCl, 3 mM KCl, 1 mM MgCl2, 1.2 mM CaCl2) was done before the insertion of the probe and continued for the duration of the experiments at a constant flow of 1 μl/minute into the frontal cortex.

[7] = system: rat; details: cited from earlier work
[8] = system: mouse; details: co-administration with L; cited from earlier work
[9] = in combination with escitalopram at a dose corresponding to a clinically effective concentration

For NC(Cc1c[nH]c2ccc(O)cc12)C(=O)O (centres unmarked) [5-HTP, 2-amino-3-(5-hydroxy-1H-indol-3-yl)-propanoic acid], the “factor by which potentiating plasma levels in mouse are lower than those required for clinical efficacy in humans” value [1] is given as “at least 3 times”, the “plasma levels in humans” value [2] is given as 50 to 100 ng/mL and the “potentiation of the response to escitalopram” value ([3]; 5-HTP 10, 15 and 50 mg/kg co-administered with escitalopram 0.5 mg/kg) is given as “significantly potentiates”. The “effect of 5-HTP alone” value ([3]; 5-HTP 25 and 50 mg/kg without SRI) was “not by themselves effective”, the “5-HTP dose at which maximum potentiation effect was achieved” value [3, 9] was 50 mg/kg and the “minimal effective dose of 5-HTP” value [3, 9] was 10 mg/kg. The “marble burying, 5-HTP alone” value ([4]; 5-HTP 2.5 mg/kg) was “no behavioral effect”, the mouse plasma level ([5]; 5-HTP 25 mg/kg) was 17 ng/mL and the mouse plasma level ([5]; 5-HTP 50 mg/kg) was 41 ng/mL.
In the case of CN(C)CCC[C@@]1(c2ccc(F)cc2)OCc2cc(C#N)ccc21 [Escitalopram, S-(+)-1-[3-(dimethylamino)propyl]-1-(p-fluorophenyl)-5-phthalancarbonitrileoxalate], the “5-HTP potentiation effect measured as increase of extra-cellular 5-HT in the frontal cortex” value [6] is listed as “dramatically higher”, the “anxiolytic response to co-treatment with L, 5-HTP” value [7] is listed as “markedly enhanced” and the ED50 [3] is listed as 12 mg/kg. For the same molecule, the “ED50, SRI + 5-HTP (25 mg/kg)” value [3] was 0.42 mg/kg, the “marble burying, escitalopram without 5-HTP” value ([4]; 0.25 mg/kg IP) was “inactive” and the “marble burying, escitalopram with 5-HTP” value ([4]; escitalopram 0.0625-0.25 mg/kg plus 5-HTP 2.5 mg/kg) was “significant reduction in marble burying”.
With CNCCC(Oc1ccc(C(F)(F)F)cc1)c1ccccc1 (centres unmarked) [Fluoxetine] the ED50 [3] was over 8.9 mg/kg and the “ED50, SRI + 5-HTP (25 mg/kg)” value [3] was 5.4 mg/kg.
In the case of Fc1ccc([C@@H]2CCNC[C@H]2COc2ccc3c(c2)OCO3)cc1 [Paroxetine, (3S,4R)-3-((1,3-benzodioxol-5-yloxy)methyl)-4-(4-fluorophenyl)-piperidine], the ED50 [3] is given as 6.5 mg/kg, the “ED50, SRI + 5-HTP (25 mg/kg)” value [3] is given as 0.64 mg/kg and the “antiaggressive effect with a subeffective dose of L, 5-HTP” value [8] is given as “greatly potentiated”.
In the case of CN(C)CCC[C@]1(c2ccc(F)cc2)OCc2cc(C#N)ccc21 [R-citalopram], the “anxiolytic response to co-treatment with L, 5-HTP” value [7] is listed as “significant increase of ultrasonic vocalization”.
With COc1ccc(C(CN(C)C)C2(O)CCCCC2)cc1 (centres unmarked) [Venlafaxine] the ED50 [3] was over 10 mg/kg and the “ED50, SRI + 5-HTP (25 mg/kg)” value [3] was 3.9 mg/kg.
